The values below come from US6495737B1, “Methods and compositions for improving salicylic acid-independent systemic acquired disease resistance in plants” (Rutgers, The State University of New Jersey, priority 1996, dated 2002).

The subject of one data set is Arabidopsis sEH gene. The conditions noted are these: in vivo; cited from earlier work.
Data set [1] concerns auxin-inducible glutathione S-transferase gene, GNT35. Kind of data set: GNT35 gene expression in tobacco suspension cells treated with auxins (positive control). Format: cell-based. The note with it: 100 μM, hormone-free medium 2 days. On the procedure: (§1) FIG. 12A: tobacco leaves were injected with water or 1 mM SA, INA or 4HBA. Samples were harvested at the times indicated and total RNA was extracted from treated tissue. Ten μg of RNA was loaded in each lane. FIG. 12B: quantification of EH-1 transcripts corresponding to the data from FIG. 12A. The method of quantification is described in FIG. 9. The experiments were done twice. FIG. 12C: cell cultures were subcultured for 2 days in hormone-free medium to deplete hormones. Water, 2,4-D or IAA were then added to the media at 100 μM. Cells were collected at the times indicated.
(§2) Cell suspension was treated with auxins as described by Xiang et al (1996). Cell cultures were grown in hormone-free medium for 2 days to deplete hormones in the medium. IAA (100 μM) and 2,4-D (100 μM) were added to the suspension. Cells were harvested at 0, 2, 6 and 12 h after addition of auxins. Water was added to the control.
(§3) Total RNA was isolated from tobacco tissue by phenol/chloroform as described in Example 1. Ten micrograms of total RNA was analyzed by electrophoresis in a 1.2% agarose gel containing formaldehyde and blotted to Nytran Plus membranes (Schleicher and Schuell). Blots were hybridized with [alpha-^32P]dCTP-labeled probes prepared by the random-priming method with a oligo labelling kit (Pharmacia). […] Following autoradiography, mRNA levels were quantitated using a Phosphorimager (Molecular Dynamics).

The test system of data set [2] is EH-1 gene. Kind of data set: EH-1 gene expression in tobacco suspension cells treated with auxins. Format: cell-based. The note with it: 100 μM, hormone-free medium 2 days, 0-12 h. On the procedure: as §1, §2, §3
In data set [3] the test system is seven groups of SIS genes (ACCO, ACCD, HMGR, APX, PR-3, SAR8.2, PAR-1). The data set is described as follows: Northern analysis of SIS gene expression in tobacco leaves injected with chemicals. The class given is in vivo, Nicotiana tabacum cv. Xanthi nc. The conditions noted are these: 1 mM injected into leaf. On the procedure: (§4) One leaf on each plant was injected with water, 1 mM of SA, INA or 4-hydroxybenzoic acid (4HBA). At the times indicated, injected leaves from two similarly treated plants (˜5 g tissue) were harvested and total RNA was extracted. Ten μg of RNA was loaded in each lane. The experiment with all ten probes was done twice.
Tobacco (Nicotiana tabacum cv. Xanthi nc) plants and NahG-10 seeds, kindly provided by John Ryals at Novartis, Research Triangle, NC, were grown at 20° C. in a growth room with a 14-h day cycle. Two upper, fully expanded leaves of 6-8 week-old plants were infected with TMV strain U1 at a concentration of 1 μg/ml in 50 mM phosphate buffer (pH 7.2) containing carborundum. Control plants were treated with phosphate buffer and carborundum only. Inoculated plants were maintained in a 22° C. growth chamber until harvesting. In temperature shift experiments, plants were immediately put into a 32° C. growth chamber after infection with TMV. After a 48 h incubation period, the temperature was shifted from 32° C. to 22° C.
(§5) SA and its analog 4-hydroxybenzoic acid were purchased from Sigma. INA was provided by Uwe Conrath and Heinrich Kauss at Universitat Kaiserslautern, Germany. All chemicals were dissolved in water and adjusted a pH of 6.5 with NaOH. They were injected into plants at a concentration of 1 mM. Control plants were injected with distilled water.
(§6) Infected leaves were harvested and frozen in liquid nitrogen and stored at −80° C. until RNA extraction. Total RNA was extracted by phenol/chloroform essentially as described by Berry et al. (1985) with some modifications on the extraction buffer (50 mM Tris.HCl, pH8.0, 20 mM EDTA, 100 mM NaCl, and 2% SDS). For RNA blots, 10 μg of total RNA was loaded in each lane. RNA was separated on 1.2% agarose gels containing 18% formaldehyde and transferred to a Nytran Plus membrane (Schleicher and Schuell, Inc., Keene, N.H.). RNA was fixed to the membrane by cross-linking with UV light and then baked at 80° C. for 2 h. Prehybridization and hybridization were performed at 60° C. in 0.5M phosphate buffer (pH 7.2), containing 1% BSA, 7% SDS, and 1 mM EDTA (Church and Gilbert, 1984). The membranes were washed twice in 2×SSC at room temperature for 10 min each, twice in 2×SSC containing 0.5% SDS at 65° C. for 30 min, and twice in 0.1×SSC at room temperature for 30 min each. The probes were prepared from linearized DNA fragments and labeled with ^32p using the random-prime labeling method (Feinberg and Vogelstein, 1984). The PR-1a DNA clone was previously isolated in our lab and the tobacco PAL DNA clone was kindly provided by Michel Legrand and Bernard Fritig, Centre National de la Recherche Scientifique, Strasbourg, France.

The subject of another data set is potato suspension cells. The conditions noted are these: cited from earlier work.
The next data set has as its system fungal pathogen. The note with it: cited from earlier work; for effectiveness at protecting / inducing resistance to fungal infection in barley: highly susceptible barley cultivar.
A further data set has as its system PR-1 genes. The data set is described as follows: Northern analysis of PR-1 gene expression in tobacco leaves injected with chemicals. The conditions noted are these: for induction of PR-1 genes (in words): exogenous treatment of tobacco. Format: in vivo, Nicotiana tabacum cv. Xanthi nc. On the procedure: as §4, §5, §6
(§7) 2,4-D, […], and its analog 4HBA were purchased from Sigma. IAA was purchased from GIBCO BRL. INA was provided by Uwe Conrath at Universitat Kaiserslautern, Germany. SA, 4HBA and INA were dissolved in water and adjusted to […] pH of 6.5. They were injected into plants at a concentration of 1 mM with a needle-less syringe. Control plants were injected with distilled water. IAA and 2,4-D was dissolved in 0.2% ethanol.
(§8) Total RNA was isolated from tobacco tissue by phenol/chloroform as described in Example 1. Ten micrograms of total RNA was analyzed by electrophoresis in a 1.2% agarose gel containing formaldehyde and blotted to Nytran Plus membranes (Schleicher and Schuell). […] Following autoradiography, mRNA levels were quantitated using a Phosphorimager (Molecular Dynamics).

A further data set deals with PAL genes. The data set is described as follows: Northern analysis of PAL gene expression in tobacco leaves injected with chemicals. The conditions noted are these: 1 mM injected into leaf. Format: in vivo, Nicotiana tabacum cv. Xanthi nc. On the procedure: as §4, §5
Infected leaves were harvested and frozen in liquid nitrogen and stored at −80° C. until RNA extraction. Total RNA was extracted by phenol/chloroform essentially as described by Berry et al. (1985) with some modifications on the extraction buffer (50 mM Tris.HCl, pH8.0, 20 mM EDTA, 100 mM NaCl, and 2% SDS). For RNA blots, 10 μg of total RNA was loaded in each lane. RNA was separated on 1.2% agarose gels containing 18% formaldehyde and transferred to a Nytran Plus membrane (Schleicher and Schuell, Inc., Keene, N.H.). RNA was fixed to the membrane by cross-linking with UV light and then baked at 80° C. for 2 h. […]

Data set [4] deals with EH-1 gene. Kind of data set: EH-1 gene expression in tobacco leaves injected with chemicals. The note with it: 1 mM injected into leaf. The class given is in vivo, Nicotiana tabacum. On the procedure:
as §1, §7, §8

Entries after “also recorded” stand apart in the source; their conditions may differ.

For the compound `O=C(O)COc1ccc(Cl)cc1Cl` [2,4-D, 2,4-dichlorophenoxy acetic acid], the “induction of Arabidopsis sEH gene” value with Arabidopsis sEH gene is recorded as “induced by auxins”. In addition, the “induction of GNT35 expression (in words)” value in data set [1] is reported as “rapidly induced”. The “induction of EH-1 expression (in words)” value in the data set on EH-1 gene [2] is listed as “Little or no induction”.

`O=C(O)c1ccc(O)cc1` [4HBA, 4-hydroxybenzoic acid]: the “activation of the seven groups of SIS genes (in words)” value (from here on “activation”) in data set [3] is “failed to activate these genes”.

With `O=C(O)CCCCCCCC(O)C(O)CCCCCCCCO` (stereo not shown) [9,10,18-trihydroxystearic acid], in the data set on potato suspension cells, the alkalinization of media entry is listed as “to a lesser extent than HESA”. In addition, the “effectiveness at protecting / inducing resistance to fungal infection in barley” value in the data set with fungal pathogen was “nearly as effective”. Moreover, the “toxicity relative to HESA” value in the data set on fungal pathogen (in vivo) is listed as “less toxic than HESA”.

As to `O=C(O)CCCCCCCC1OC1CCCCCCCCO` (stereo not drawn) [HESA, cis-9,10-epoxy-18-hydroxystearic acid], in the data set with potato suspension cells, the alkalinization of media result was “caused the rapid alkalinization”. Also, the “effectiveness at protecting / inducing resistance to fungal infection in barley” value with fungal pathogen was “most effective”.

`O=C(O)Cc1c[nH]c2ccccc12` [IAA, indole-3-acetic acid]: the “induction of Arabidopsis sEH gene” value with Arabidopsis sEH gene is “induced by auxins”. In addition, the “induction of GNT35 expression (in words)” value in data set [1] is “rapidly induced”. Further, the “induction of EH-1 expression (in words)” value with EH-1 gene [2] is reported as “Little or no induction”.

In the case of `O=C(O)c1cc(Cl)nc(Cl)c1` [INA, 2,6-dichloroisonicotinic acid], the “activation” value in [3] is “induced by INA, generally in a transient manner; also recorded: rapid and transient activation of six of the seven groups”. The “induction of PR-1 genes (in words)” value in the data set with PR-1 genes was “slow and sustained”. In the data set with PAL genes, the “induction of PAL gene expression (in words)” value is given as “neither SA nor INA can induce PAL gene expression”. Besides, the “EH-1 transcript accumulation (in words)” value with EH-1 gene [4] is “induced a transient accumulation of EH-1 transcripts; also recorded: accumulate rapidly and transiently”.

For the compound `O=C(O)c1ccccc1O` [SA, salicylic acid], in [3], the “activation” value was “induced their expression transiently; also recorded: rapid and transient activation of six of the seven groups”; the “time post treatment by which SIS mRNA levels had declined” value is given as not above 24 h; the “time post treatment by which mRNA levels for all SIS genes had peaked” value was not above 12 h. For the same compound, the “time after injection by which six of the seven groups of SIS genes were induced” value in data set [3] (Northern blot) fell in the range of 4 to 6 h. Moreover, the “time after treatment at which increased expression of PAR-1 was detected” value in data set [3] (this experiment) is given as 12 h. Also, the “time post treatment at which PR-1 mRNAs were first detected” value in the data set on PR-1 genes (1 mM injected into leaf, Example 1) was 12 h. Also, the “time post treatment at which PR-1 transcripts were first detected” value with PR-1 genes (1 mM injected into leaf, Example 2) came out at 12 h. For the same compound, the “induction of PR-1 genes (in words)” value in the data set on PR-1 genes is “slow and sustained”. For the same compound, the “induction of PAL gene expression (in words)” value in the data set with PAL genes was “little, if any, induction of PAL; also recorded: neither SA nor INA can induce PAL gene expression”.
